# Assay results reported in patent US20150231109A1, “COMBINATIONS (CATECHINS AND METHOTREXATE) FOR USE IN THE TREATMENT OF MELANOMAS” (UNIVERSIDAD DE MURCIA, priority 2012, published 2015).
# Marks after values point to notes of the source that are not given here.
# Assays:
# [1] = system: SK-MEL-28 melanoma cells; test: HPLC/MS analyses of MTX, TMECG-QM and DHF in whole cell extracts; format: cell-based, human; settings: SK-MEL-28 whole cell extracts, 24 h, MTX 1 μM and/or TMECG 10 μM
# Experimental: By way of example, the present inventors have shown that an active agent, such as MTX, may be used to increase TYR expression, thereby increasing the conversion of a catechin to its quinone methide form. The inventors have undertaken HPLC analyses of MTX, TMECG-QM, and DHF in whole cell extracts of SK-MEL-28 melanoma cells that were subjected to MTX (1 μM) and TMECG (10 μM) individual and combined treatments (see Table 1).
# [2] = system: SK-MEL-28 cells; test: Matrigel Boyden chamber invasion assay, SK-MEL-28; format: cell-based, human; settings: SK-MEL-28, MTX 48 h, 1 μM
# Experimental: FIGS. 1A-J. Methotrexate up-regulates the expression of MITF. A, The MITF rheostat, and the two-step strategy for melanoma therapy: Drug A induces MITF, driving cells to be sensitive to Drug B. B, MTX (1 μM) increases MITF mRNA determined using quantitative and conventional RT-PCR from indicated cell lines. […] C, MTX (1 μM) induces MITF protein assayed by western blotting (WB) (*P<0.05). D, Immunofluorescence of control or MTX-treated (3 h) 501 MEL cells using anti-MITF and DAPI. E, Matrigel assay of control and MTX-treated SKMEL-28 cells (48 h, 1 μM) and IGR39 (72 h, 1 μM) cells. […] Scale bar refers to all panels. F, Chromatin immunoprecipitation on TYR and Pmel17 genes of control and MTX-treated (4 h, 1 μM) SK-MEL-28 cells with qRT-PCR after immunoprecipitation with IgG, or MITF and HDAC3 antibodies. Error bars indicate standard deviations of triplicates; experiment reproduced four times with similar results. G, Scanning electron micrographs of control and MTX-treated (1 μM, 24 h) SK-MEL-28 cells. H, Semiquantitative RT PCR of TYR, TYRP1, Pmel17, MART1, and Rab27a mRNA. […]
# Invasion assays were performed using a cell invasion assay kit (BD Bioscience). […] The invading cells were stained and quantified measuring the surface occupied by stained cells with a cell counter plug-in of the Image J software.
# [3] = Toxicology in non-tumor inoculated C57BL/6 mice; format: in vivo, mouse
# Experimental: FIGS. 4A-N. MTX and TMECG combination therapy is effective in vivo. A, A375 melanoma cells were included in a human reconstructed skin model and were treated with MTX (1 μM) and/or TMECG (10 μM) for 14 days. B, B16/F10 melanoma cells were injected subcutaneously into C57/B16 mice. Images show tumor size 17 days post-injection in control and treated mice. […] C, Luciferase imaging of control and MTX/TMECG-treated mice 12 days post-tumor cell injection. Beetle luciferin (120 mg/kg of mouse) was injected intraperitoneally. The values (means±s.d.) are representative of three independent experiments. *P=0.007; **P=0.002. D, Bioluminescent imaging of livers at 14 days post-intrasplenic injection of B16-F10-luc-G5 cells from untreated and MTX/TMECG-treated mice are shown. E, Quantification of macrometastases (0-10, 10-25 or >25) after treatment with vehicle (control), MTX (1 mg/kg/day), and/or TMECG (50 mg/kg/day). F, Photomicrograph of H&E-stained, 4 μm formalin-fixed, paraffin-embedded liver sections from control (DMSO) and MTX/TMECG-treated mice (1 and 50 mg/kg/day, respectively) (5× magnification). G, MTX activation of MITF and tyrosinase activates the melanoma-specific antifolate activity of TMECG, leading to depletion of cellular dTTP and apoptosis. H, Sections stained with hematoxylin and eosin show the effect of MTX/TMECG on B16/F10 primary splenic tumors. Xenograft tumors treated with DMSO (vehicle) or MTX/TMECG (1 mg/kg/day and 50 mg/kg/day, respectively) over 14-days. […] Representative images taken from two independent experiments (n=5 for each experiment). Scale bar=200 μm and is applicable to both panels. I, B16/F10 melanoma cells, expressing a luciferase reporter, were injected subcutaneously to mice. Mice were divided in two groups (n=7) and treated with vehicle (DMSO) or MTX/TMECG (1 mg/kg/day and 10 mg/kg/day, respectively) over 21-days. Then, tumors were pooled and dissociated. B16/F10 cells extracted from tumors were examined for their sensitivity to the MTX/TMECG combination (1 μM and 10 μM, respectively) using quantification of the luminescence signal (left panel). J, The histogram represents the number of B16/F10-luc2 cells remaining after 3 days of MTX/TMECG treatment with respect to vehicle treated controls (100%). […] K, The morphology of tumor dissociated B16/F10-luc2 cells before and after of MTX/TMECG treatment. Scale bar refers to all panels. L, Histograms represent the number of copies of TYR mRNA for every 1×10^3 copies of β-actin±SD of three independent experiments. […]
# To explore the toxicity of TMECG and MTX, these agents (at indicated concentrations) were administrated intradermally to the back of non-tumor inoculated female C57BL/6 mice (n=10), and body weight monitored every other day. […]
smiles,measurement,setting,value
"CN(Cc1cnc2nc(N)nc(N)c2n1)c1ccc(C(=O)N[C@@H](CCC(=O)O)C(=O)O)cc1 [MTX, methotrexate]",MTX intracellular concentration,[1],<0.001* pmol/10^6 cells
same,invasiveness,[2],eliminated invasiveness
same,mouse body weight,[3]; MTX 10 mg/kg/day,induced some weight loss
same,mouse body weight,[3]; MTX alone 1 mg/Kg/day,no effect
